From the NIST ThermoML archive (doi:10.1016/j.tca.2016.03.013)
Where “and” joins values, the source holds several entries; their conditions need not be identical. Identical values can stand only once.

Tests used:
[1] = for vapor or sublimation pressure: Liquid, Rate of evaporation; for Normal melting temperature: DTA
[2] = Molar enthalpy of transition or fusion; settings: DSC
[3] = molar heat capacity at constant pressure; settings: 101.33 kPa, Small sample (50 mg) DSC

C1COCCOCCOCCOCCOCCO1 [1,4,7,10,13,16-hexaoxacyclooctadecane]
Settings | Molar enthalpy of transition or fusion [kcal/mol] | Normal melting temperature [°C] | vapor or sublimation pressure
[1], 430 K | – | – | 0.3102 kPa and 0.3376 kPa and 0.3358 kPa
[1], 435 K | – | – | 0.4315 kPa and 0.4219 kPa and 0.4305 kPa
[1], 440 K | – | – | 0.5414 kPa and 0.5488 kPa and 0.5487 kPa
[1], 445 K | – | – | 0.6904 kPa and 0.6934 kPa and 0.6846 kPa
[1], 450 K | – | – | 0.858 kPa and 0.8682 kPa and 0.8441 kPa
[1], 455 K | – | – | 1.063 kPa and 1.052 kPa
[1], 460 K | – | – | 1.315 kPa and 1.31 kPa and 1.317 kPa
[1], 465 K | – | – | 1.616 kPa and 1.619 kPa and 1.602 kPa
[1], 470 K | – | – | 1.972 kPa and 1.959 kPa and 1.967 kPa
[1], 475 K | – | – | 2.394 kPa and 2.387 kPa and 2.399 kPa
[1], 480 K | – | – | 2.879 kPa and 2.853 kPa and 2.858 kPa
[1], Crystal | – | 39.17 | –
[2], Crystal | 9.56 | – | –

[3]
Settings | molar heat capacity at constant pressure [J/K/mol]
290 K, Crystal | 380.3
291 K, Crystal | 388.3
292 K, Crystal | 394.8
293 K, Crystal | 401.7
294 K, Crystal | 409.8
295 K, Crystal | 418.9
296 K, Crystal | 428.4
297 K, Crystal | 440.7
298 K, Crystal | 457
298.15 K, Crystal | 460
299 K, Crystal | 479.4
315 K, Liquid | 515
320 K, Liquid | 516.5
325 K, Liquid | 518.7
330 K, Liquid | 521.5
335 K, Liquid | 522.8
340 K, Liquid | 524.9
345 K, Liquid | 526.3
350 K, Liquid | 527.8
355 K, Liquid | 528.8
410 K, Liquid | 562.4
415 K, Liquid | 567.4
420 K, Liquid | 573.6
425 K, Liquid | 578.6
430 K, Liquid | 582.6
435 K, Liquid | 587.1
440 K, Liquid | 590.4
445 K, Liquid | 595.2
450 K, Liquid | 599.4
455 K, Liquid | 603
460 K, Liquid | 607.7
465 K, Liquid | 612.5
470 K, Liquid | 617.4
475 K, Liquid | 621.3
480 K, Liquid | 626.4
485 K, Liquid | 630.9
490 K, Liquid | 635.9

c1ccc2c(c1)OCCOCCOCCOc1ccccc1OCCOCCOCCO2 [dibenzo-24-crown-8]
Settings | Molar enthalpy of transition or fusion [kcal/mol] | Normal melting temperature [°C] | Triple point temperature [K] | vapor or sublimation pressure
[1], 545 K | – | – | – | 0.114 kPa and 0.1131 kPa and 0.1132 kPa
[1], 550 K | – | – | – | 0.1434 kPa and 0.1414 kPa and 0.1402 kPa
[1], 555 K | – | – | – | 0.1736 kPa and 0.1757 kPa and 0.1786 kPa
[1], 560 K | – | – | – | 0.2155 kPa and 0.2204 kPa and 0.2198 kPa
[1], 565 K | – | – | – | 0.2674 kPa and 0.2714 kPa and 0.2733 kPa
[1], 570 K | – | – | – | 0.3406 kPa and 0.3372 kPa and 0.3358 kPa
[1], 575 K | – | – | – | 0.4082 kPa and 0.4133 kPa and 0.4103 kPa
[1], 580 K | – | – | – | 0.4998 kPa and 0.5082 kPa and 0.5036 kPa
[1], 585 K | – | – | – | 0.607 kPa and 0.6171 kPa and 0.6145 kPa
[1], 590 K | – | – | – | 0.7381 kPa and 0.7487 kPa and 0.7461 kPa
[1], 595 K | – | – | – | 0.9028 kPa and 0.897 kPa and 0.9062 kPa
[1], Crystal 1 | – | 100.72 | – | –
[1], Crystal 2, DSC | – | – | 346.32 | –
[2], Crystal 1 | 12.8 | – | – | –
[2], Crystal 2 | 0.234 | – | – | –

[3]
Settings | molar heat capacity at constant pressure [J/K/mol]
295 K, Crystal 2 | 602
298.15 K, Crystal 2 | 611.3
300 K, Crystal 2 | 615.7
305 K, Crystal 2 | 627.3
310 K, Crystal 2 | 638.8
315 K, Crystal 2 | 648
320 K, Crystal 2 | 658.1
325 K, Crystal 2 | 668.9
330 K, Crystal 2 | 681.3
335 K, Crystal 2 | 692.8
340 K, Crystal 2 | 706.2
355 K, Crystal 1 | 755.6
360 K, Crystal 1 | 771.8
365 K, Crystal 1 | 802
380 K, Liquid | 921.2
385 K, Liquid | 922.5
390 K, Liquid | 927.3
395 K, Liquid | 930.4
400 K, Liquid | 934.6
405 K, Liquid | 938.7
410 K, Liquid | 943.5
415 K, Liquid | 947.5
420 K, Liquid | 956.1
425 K, Liquid | 962.6
430 K, Liquid | 968.4
435 K, Liquid | 974.4
440 K, Liquid | 979
445 K, Liquid | 985.6
450 K, Liquid | 990.7
455 K, Liquid | 996.8
460 K, Liquid | 1003.2
465 K, Liquid | 1009.9
470 K, Liquid | 1016.5
475 K, Liquid | 1020.4
480 K, Liquid | 1025.3
485 K, Liquid | 1030.6
490 K, Liquid | 1036.3

[Al+3].[Al+3].[O-2].[O-2].[O-2] [aluminum oxide (Al2O3)]
[3], Crystal
Settings | molar heat capacity at constant pressure [J/K/mol]
298.15 K | 78.8
350 K | 88.2
450 K | 101.33
